The values that follow come from patent US8324245B2, “Quinoline derivative and quinazoline derivative inhibiting self-phosphorylation of hepatocytus proliferator receptor, and medicinal composition containing the same” (Kyowa Hakko Kirin Co., Ltd., priority 2001, dated 2012).

Usually IC50 stands for the concentration needed to halve the response being measured.

The experiment addresses T1, met (HGF receptor) in human gastric cancer cells MKN45 (Homo sapiens, UniProt P08581).
T1 construct: endogenous in cells; host or cells: MKN45 human gastric cancer cells
Briefly: Inhibitory activity against met-autophosphorylation using ELISA method (2), MKN45 cells, HGF-independent. Format: cell-based. In a few lines: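 MKN45 cells, 3×10^4 per well in RPMI with 0.1% FCS overnight, were exposed to compound in DMSO for 1 h at 37 °C without HGF. Lysates were captured on anti-phosphotyrosine (PY20) plates, Met detected with anti-Met and peroxidase secondary antibody, absorbance at 450 nm.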
(In general: An ELISA detects its analyte on a solid surface through an enzyme-linked reagent.)

T1 sequence (P08581 25-1390): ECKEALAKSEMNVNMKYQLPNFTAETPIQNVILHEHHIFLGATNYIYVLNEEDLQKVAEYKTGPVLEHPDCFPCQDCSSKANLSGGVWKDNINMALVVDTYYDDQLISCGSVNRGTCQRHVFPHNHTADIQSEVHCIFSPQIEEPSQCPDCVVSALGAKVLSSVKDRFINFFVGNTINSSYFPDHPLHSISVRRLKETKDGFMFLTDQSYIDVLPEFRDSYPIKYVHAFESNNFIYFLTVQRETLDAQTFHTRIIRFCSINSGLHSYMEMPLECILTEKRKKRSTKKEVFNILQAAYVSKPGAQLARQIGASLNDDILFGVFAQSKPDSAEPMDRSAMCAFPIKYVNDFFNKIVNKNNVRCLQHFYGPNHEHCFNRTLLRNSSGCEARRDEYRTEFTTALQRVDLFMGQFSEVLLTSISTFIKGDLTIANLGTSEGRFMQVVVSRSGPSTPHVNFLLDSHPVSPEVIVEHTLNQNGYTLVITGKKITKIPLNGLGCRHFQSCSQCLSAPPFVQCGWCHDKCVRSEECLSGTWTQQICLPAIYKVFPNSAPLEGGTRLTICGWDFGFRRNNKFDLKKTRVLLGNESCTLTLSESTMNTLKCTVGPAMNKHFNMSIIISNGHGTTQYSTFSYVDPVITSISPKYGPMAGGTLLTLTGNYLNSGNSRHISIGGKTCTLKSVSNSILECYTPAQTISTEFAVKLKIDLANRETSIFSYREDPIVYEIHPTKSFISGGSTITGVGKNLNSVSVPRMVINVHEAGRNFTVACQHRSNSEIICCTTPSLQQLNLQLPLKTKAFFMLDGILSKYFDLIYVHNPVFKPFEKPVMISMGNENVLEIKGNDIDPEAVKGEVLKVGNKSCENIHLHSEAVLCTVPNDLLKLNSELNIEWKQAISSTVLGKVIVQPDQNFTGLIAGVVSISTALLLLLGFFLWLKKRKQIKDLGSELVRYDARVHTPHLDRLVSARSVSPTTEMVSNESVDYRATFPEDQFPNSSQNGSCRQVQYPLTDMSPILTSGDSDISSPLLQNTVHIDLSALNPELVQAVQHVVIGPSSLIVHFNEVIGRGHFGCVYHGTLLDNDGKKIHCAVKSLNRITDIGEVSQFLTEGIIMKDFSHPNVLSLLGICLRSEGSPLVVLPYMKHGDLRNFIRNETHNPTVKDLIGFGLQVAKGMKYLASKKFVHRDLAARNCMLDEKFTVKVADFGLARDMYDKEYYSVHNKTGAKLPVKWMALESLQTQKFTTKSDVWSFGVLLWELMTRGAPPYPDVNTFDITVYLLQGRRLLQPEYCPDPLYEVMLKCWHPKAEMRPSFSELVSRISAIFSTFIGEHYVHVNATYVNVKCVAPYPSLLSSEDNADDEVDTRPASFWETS

`COc1cc2nccc(Oc3ccc(NC(=O)NC(=O)Nc4ccc5c(c4)OCCO5)cc3)c2cc1OC` [Example 238, N-(2,3-dihydro-1,4-benzodioxin-6-yl)-({[4-(6,7-dimethoxyquinolin-4-yloxy)anilino]carbonyl}amino)-methanamide] returned an IC50 of 4020 nM.

`COc1cc2nccc(Oc3ccc(NC(=O)NC(=O)Nc4cccc(C#N)c4)cc3)c2cc1OC` [Example 239, N-(3-cyanophenyl)-({[4-(6,7-dimethoxy-quinolin-4-yloxy)anilino]carbonyl}amino)-methanamide] gave an IC50 of 1580 nM.

`COc1cc2nccc(Oc3ccc(NC(=O)NC(=O)Nc4ccccc4C(F)(F)F)cc3)c2cc1OC` [Example 240, N-[2-(trifluoromethyl)phenyl]-({[4-(6,7-dimethoxyquinolin-4-yloxy)anilino]carbonyl}amino)methan-amide] registered an IC50 of 2740 nM.

Consider `COc1cc2nccc(Oc3ccc(NC(=O)NC(=O)Nc4ccc(CC#N)cc4)cc3)c2cc1OC` [Example 241, N-[4-(cyanomethyl)phenyl]-({[4-(6,7-dimethoxyquinolin-4-yloxy)anilino]carbonyl}amino)-methanamide], for which the IC50 turned out to be 3320 nM. The IC50 values of the last two molecules are within 1.5-fold of each other.

`COc1cc2nccc(Oc3ccc(NC(=O)NC(=O)Nc4ccc(Cl)cc4C)cc3)c2cc1OC` [Example 242, N-(4-chloro-2-methylphenyl)-({[4-(6,7-dimethoxyquinolin-4-yloxy)anilino]carbonyl}amino)-methanamide] gave a 50% inhibitory concentration (IC50) of 851 nM.

As for `COc1cc2nccc(Oc3ccc(NC(=O)NC(=O)Nc4ccc5c(c4)CCC5)cc3)c2cc1OC` [Example 243, N-(2,3-dihydro-1H-5-indenyl)-({[4-(6,7-dimethoxyquinolin-4-yloxy)anilino]carbonyl}amino)-methanamide], the IC50 worked out at 3010 nM.

As for `COc1cccc(NC(=O)NC(=O)Nc2ccc(Oc3ccnc4cc(OC)c(OC)cc34)cc2)c1` [Example 244, N-(3-methoxyphenyl)-({[4-(6,7-dimethoxy-quinolin-4-yloxy)anilino]carbonyl}amino)methanamide], the IC50 was 342 nM. Against the preceding molecule, the IC50 is about 8.8-fold lower.

With `COC(=O)c1ccccc1NC(=O)NC(=O)Nc1ccc(Oc2ccnc3cc(OC)c(OC)cc23)cc1` [Example 245, methyl 2-({({[4-(6,7-dimethoxyquinolin-4-yloxy)anilino]carbonyl}amino)carbonyl}amino)benzoate], the IC50 stood at 308 nM.

Molecule `COc1cc2nccc(Oc3ccc(NC(=O)NC(=O)Nc4ccccc4Cc4ccccc4)cc3)c2cc1OC` [Example 246, N-(2-benzylphenyl)-({[4-(6,7-dimethoxy-quinolin-4-yloxy)anilino]carbonyl}amino)methanamide] returned an IC50 of 2910 nM.

With `COc1cc2nccc(Oc3ccc(NC(=O)NC(=O)Nc4ccccc4Br)cc3)c2cc1OC` [Example 247, N-(2-bromophenyl)-({[4-(6,7-dimethoxy-quinolin-4-yloxy)anilino]carbonyl}amino)methanamide], the midpoint of inhibition, the IC50, lay at 650 nM.

In turn, `COc1cc2nccc(Oc3ccc(NC(=O)NC(=O)Nc4ccccc4Cl)cc3)c2cc1OC` [Example 248, N-(2-chlorophenyl)-({[4-(6,7-dimethoxy-quinolin-4-yloxy)anilino]carbonyl}amino)methanamide] registered an IC50 of 957 nM.

On to `COc1cc2nccc(Oc3ccc(NC(=O)NC(=O)Nc4ccc(Cl)cc4)cc3)c2cc1OC` [Example 249, N-(4-chlorophenyl)-({[4-(6,7-dimethoxy-quinolin-4-yloxy)anilino]carbonyl}amino)methanamide], for which the IC50 came to 526 nM. Against the preceding molecule, the IC50 is about 1.8-fold lower.

For the molecule `COc1cc2nccc(Oc3ccc(NC(=O)NC(=O)Nc4ccc(F)cc4Cl)cc3)c2cc1OC` [Example 250, N-(2-chloro-4-fluorophenyl)-({[4-(6,7-dimethoxyquinolin-4-yloxy)anilino]carbonyl}amino)-methanamide], it took 447 nM to reach half-maximal inhibition (IC50).

In turn, `COc1cc2nccc(Oc3ccc(NC(=O)NC(=O)Nc4cccc(F)c4)cc3)c2cc1OC` [Example 251, N-(3-fluorophenyl)-({[4-(6,7-dimethoxy-quinolin-4-yloxy)anilino]carbonyl}amino)methanamide] yielded an IC50 of 386 nM.

In turn, `COc1cc2nccc(Oc3ccc(NC(=O)NC(=O)Nc4ccccc4F)cc3)c2cc1OC` [Example 252, N-(2-fluorophenyl)-({[4-(6,7-dimethoxy-quinolin-4-yloxy)anilino]carbonyl}amino)methanamide] had an IC50 of 301 nM.

On to `COc1cc2nccc(Oc3ccc(NC(=O)NC(=O)Nc4ccccc4SC)cc3)c2cc1OC` [Example 253, N-[2-(methylsulfanyl)phenyl]-({[4-(6,7-dimethoxyquinolin-4-yloxy)anilino]carbonyl}amino)-methanamide], for which it took 1340 nM to reach half-maximal inhibition (IC50).

`COc1cc2nccc(Oc3ccc(NC(=O)NC(=O)Nc4ccc([N+](=O)[O-])cc4)cc3)c2cc1OC` [Example 254, N-(4-nitrophenyl)-({[4-(6,7-dimethoxy-quinolin-4-yloxy)anilino]carbonyl}amino)methanamide] showed an IC50 of 365 nM.

`COc1cc2nccc(Oc3ccc(NC(=O)NC(=O)Nc4ccccc4Oc4ccccc4)cc3)c2cc1OC` [Example 255, N-(2-phenoxyphenyl)-({[4-(6,7-dimethoxy-quinolin-4-yloxy)anilino]carbonyl}amino)methanamide] displayed an IC50 of 260 nM.

`COc1cc2nccc(Oc3ccc(NC(=O)NC(=O)Nc4cccc(C)c4)cc3)c2cc1OC` [Example 256, N-(3-methylphenyl)-({[4-(6,7-dimethoxy-quinolin-4-yloxy)anilino]carbonyl}amino)methanamide] had an IC50 of 281 nM.

On to `COc1cc2nccc(Oc3ccc(NC(=O)NC(=O)Nc4ccc(C)cc4)cc3)c2cc1OC` [Example 257, N-(4-methylphenyl)-({[4-(6,7-dimethoxy-quinolin-4-yloxy)anilino]carbonyl}amino)methanamide], for which inhibition was half-maximal at 286 nM (IC50).

As for `COc1cc2nccc(Oc3ccc(NC(=O)NC(=O)Nc4c(C)cccc4C)cc3)c2cc1OC` [Example 258, N-(2,6-dimethylphenyl)-({[4-(6,7-dimethoxy-quinolin-4-yloxy)anilino]carbonyl}amino)methanamide], the IC50 amounted to 357 nM.

Take `COc1cc2nccc(Oc3ccc(NC(=O)NC(=O)Nc4ccccc4-n4cccc4)cc3)c2cc1OC` [Example 259, N-[2-(1H-1-pyrrolyl)phenyl]-({[4-(6,7-dimethoxyquinolin-4-yloxy)anilino]carbonyl}amino)-methanamide]: the IC50 was determined as 614 nM.

With `COc1cc2nccc(Oc3ccc(NC(=O)NC(=O)Nc4cccc5cccnc45)cc3)c2cc1OC` [Example 260, N-(8-quinolyl)-({[4-(6,7-dimethoxyquinolin-4-yloxy)anilino]carbonyl}amino)methanamide], the IC50 was 2230 nM. This IC50 is about 3.6-fold higher than that of the molecule before.

`COc1cc2nccc(Oc3ccc(NC(=O)NC(=O)Nc4cccc(C(C)=O)c4)cc3)c2cc1OC` [Example 261, N-(3-acetylphenyl)-({[4-(6,7-dimethoxy-quinolin-4-yloxy)anilino]carbonyl}amino)-methanamide] displayed an IC50 of 343 nM.

In turn, `COc1cc2nccc(Oc3ccc(NC(=O)NC(=O)Nc4cccc5ncccc45)cc3)c2cc1OC` [Example 262, N-(5-quinolyl)-({[4-(6,7-dimethoxyquinolin-4-yloxy)anilino]carbonyl}amino)methanamide] registered an IC50 of 269 nM. This IC50 and that of the molecule before are within 1.5-fold of each other.

The molecule `COc1cc2nccc(Oc3ccc(NC(=O)NC(=O)Nc4c(Cl)cccc4Cl)cc3)c2cc1OC` [Example 263, N-(2,6-dichlorophenyl)-({[4-(6,7-dimethoxy-quinolin-4-yloxy)anilino]carbonyl}amino)methanamide] gave an IC50 of 483 nM.

Consider `COc1cc2nccc(Oc3ccc(NC(=O)NC(=O)Nc4ccc(F)c(F)c4)cc3)c2cc1OC` [Example 264, N-(3,4-difluorophenyl)-({[4-(6,7-dimethoxy-quinolin-4-yloxy)anilino]carbonyl}amino)methanamide], for which 347 nM corresponded to half-maximal inhibition (IC50).

Molecule `COc1cc2nccc(Oc3ccc(NC(=O)NC(=O)Nc4c(F)cccc4F)cc3)c2cc1OC` [Example 265, N-(2,6-difluorophenyl)-({[4-(6,7-dimethoxy-quinolin-4-yloxy)anilino]carbonyl}amino)methanamide] displayed an IC50 of 259 nM.

Consider `COc1ccccc1NC(=O)NC(=O)Nc1ccc(Oc2ccnc3cc(OC)c(OC)cc23)cc1` [Example 266, N-(2-methoxyphenyl)-({[4-(6,7-dimethoxy-quinolin-4-yloxy)anilino]carbonyl}amino)methanamide], for which the IC50 stood at 181 nM.

The molecule `COc1cc2nccc(Oc3ccc(NC(=O)NC(=O)Nc4ccccc4CCO)cc3)c2cc1OC` [Example 267, N-[2-(2-hydroxyethyl)phenyl]-({[4-(6,7-dimethoxyquinolin-4-yloxy)anilino]carbonyl}amino)-methanamide] showed an IC50 of 109 nM.

For the molecule `COc1cc2c(Oc3ccc(NC(=O)CC(=O)Nc4ccc(F)cc4)cc3F)ccnc2cc1OCCCN1CCOCC1` [Example 269, N-{3-fluoro-4-[6-methoxy-7-(3-morpholin-4-yl-propoxy)quinolin-4-yloxy]phenyl}-N′-(4-fluorophenyl)-malonamide], the IC50 amounted to 12.5 nM. This IC50 is about 8.7-fold lower than that of the molecule before.

Take `COc1cc2c(Oc3ccc(NC(=S)NC(=O)Cc4ccccc4)cc3F)ccnc2cc1OCCN1CCN(C)CC1` [Example 270, 1-(3-Fluoro-4-{6-methoxy-7-[2-(4-methyl-piperazin-1-yl)-ethoxy]-quinolin-4-yloxy}-phenyl)-3-phenylacetyl-thiourea]: the IC50 amounted to 26.7 nM.

Take `CCN(CC)CCOc1cc2nccc(Oc3ccc(NC(=S)NC(=O)Cc4ccccc4)cc3F)c2cc1OC` [Example 272, 1-{4-[7-(2-Diethylamine-ethoxy)-6-methoxy-quinolin-4-yloxy]-3-fluoro-phenyl}-3-phenylacetyl-thiourea]: the IC50 turned out to be 33.6 nM. This IC50 and that of the molecule before are within 1.5-fold of each other.

For the molecule `COc1cc2c(Oc3ccc(NC(=S)NC(=O)Cc4ccccc4)cc3F)ccnc2cc1OCCN1CCCN(C)CC1` [Example 273, 1-(3-Fluoro-4-{6-methoxy-7-[2-(4-methyl-[1,4]diazepan-1-yl)-ethoxy]-3-quinolin-4-yloxy}-phenyl)-3-phenylacetyl-thiourea], the IC50 is 24 nM. This IC50 and that of the molecule before are within 1.5-fold of each other.
